Data as given in ChEMBL document CHEMBL6153048, “Synthesis and pharmacological evaluation of natural product diphyllin derivatives against head and neck squamous cell carcinoma” (Eur J Med Chem, 2025).

Assays:
[1] = Toxicity in BALB/c mouse xenografted with human CAL-27 cells assessed as body weight at 0.3 mg/kg, iv treated four times a week for 30 days; format: organism-based; details: in vivo, 720 h, time 30 day
CAL-27 [2] = assay: Induction of apoptosis in human CAL-27 cells assessed as early apoptotic cells at 10 nM incubated for 72 hrs by Annexin V-FITC/propidium iodide staining based flow cytometry analysis (reference value: 7.74%); format: functional
[3] = Toxicity in BALB/c mouse xenografted with human CAL-27 cells assessed as body weight at 0.6 mg/kg, iv treated four times a week for 30 days; format: organism-based; details: in vivo, 720 h, time 30 day
CAL-27 [4] = assay: Induction of apoptosis in human CAL-27 cells assessed as viable cells at 1 nM incubated for 72 hrs by Annexin V-FITC/propidium iodide staining based flow cytometry analysis (reference value: 90.41%); format: functional; details: read-out: Activity
CAL-27 [5] = assay: Induction of apoptosis in human CAL-27 cells assessed as early apoptotic cells at 1000 nM incubated for 72 hrs by Annexin V-FITC/propidium iodide staining based flow cytometry analysis (reference value: 7.74%); format: functional
CAL-27 [6] = assay: Induction of cell cycle arrest in human CAL-27 cells assessed as accumulation of cells at G1 phase at 1 to 1000 nM incubated for 48 hrs by flow cytometry analysis (Rvb= 58.6%); format: functional; details: dose 1-1000 nM
CAL-27 [7] = assay: Induction of apoptosis in human CAL-27 cells assessed as apoptotic cells at 1 nM incubated for 72 hrs by Annexin V-FITC/propidium iodide staining based flow cytometry analysis (reference value: 10.29%); format: functional
CAL-27 [8] = assay: Induction of apoptosis in human CAL-27 cells assessed as viable cells at 100 nM incubated for 72 hrs by Annexin V-FITC/propidium iodide staining based flow cytometry analysis (reference value: 88.23%); format: functional; details: read-out: Activity
CAL-27 [9] = assay: Induction of apoptosis in human CAL-27 cells assessed as early apoptotic cells at 1 nM incubated for 72 hrs by Annexin V-FITC/propidium iodide staining based flow cytometry analysis (reference value: 9.16%); format: functional

| SMILES | Activity [1] | Activity (CAL-27 [2]) | Activity [3] | viability at 0.001 µM (CAL-27 [4]) | Activity (CAL-27 [5]) | Activity (CAL-27 [6]) | Activity (CAL-27 [7]) | viability at 0.1 µM (CAL-27 [8]) | Activity (CAL-27 [9]) |
| --- | --- | --- | --- | --- | --- | --- | --- | --- | --- |
| COc1cc2c(O[C@@H]3O[C@@H]4CO[C@@H](c5ccsc5)O[C@H]4[C@H](O)[C@H]3O)c3c(c(-c4ccc5c(c4)OCO5)c2cc1OC)C(=O)OC3 | Non-toxic | 16.27% | Non-toxic | 93% | 25.35% | 78.7% | 15.78% | – | – |
| COc1cc2c(O)c3c(c(-c4ccc5c(c4)OCO5)c2cc1OC)C(=O)OC3 [DIPHYLLIN] | – | – | – | – | – | – | – | 92.5% | 2.68% |
